The results in this text go back to patent publication US10844051B2, “Substituted oxazoles for the treatment of cancer” (THE ROYAL INSTITUTION FOR THE ADCANCEMENT OF …, priority 2015, dated 2020).

What all share (type): cell-based
In one data set the target is T1, human STING (hSTING) (Homo sapiens, UniProt Q86WV6).
T1 construct: expressed in transfected cells; host or cells: 293T
In words: hSTING ISRE-luc reporter assay in 293T cells. The following applies: 24 hours. As to the method: ISRE-luc (reporter), pRL-TK (internal control) and hSTING-expressing plasmids were transiently transfected into 293T cells. Cells were exposed to DMSO vehicle control or compounds for 24 hours. Experiments were done in triplicate.
A general note: Reporter assays use an easily measured gene product as a stand-in for the process of interest.

The next data set concerns the target T2, mouse STING (mSTING) (Mus musculus, UniProt Q3TBT3).
T2 construct: expressed in transfected cells; host or cells: 293T
T2 sequence (Q3TBT3 1-378): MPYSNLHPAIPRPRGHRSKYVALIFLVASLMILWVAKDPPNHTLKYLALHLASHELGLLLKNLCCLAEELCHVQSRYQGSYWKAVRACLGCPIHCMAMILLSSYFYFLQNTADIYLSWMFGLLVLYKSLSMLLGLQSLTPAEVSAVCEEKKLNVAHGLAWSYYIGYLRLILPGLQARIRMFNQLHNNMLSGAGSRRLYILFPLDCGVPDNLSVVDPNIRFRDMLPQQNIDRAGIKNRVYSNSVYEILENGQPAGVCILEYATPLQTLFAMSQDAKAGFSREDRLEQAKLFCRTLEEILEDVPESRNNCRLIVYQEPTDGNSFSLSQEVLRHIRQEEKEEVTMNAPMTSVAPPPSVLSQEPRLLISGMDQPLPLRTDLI
Briefly: mSTING ISRE-luc reporter assay in 293T cells. Conditions: 24 hours. As to the method: ISRE-luc (reporter), pRL-TK (internal control) and mSTING-expressing plasmids were transiently transfected into 293T cells. Cells were exposed to DMSO vehicle control or compounds for 24 hours. Experiments were done in triplicate.

In another data set the target is T3, ETV1 (Homo sapiens, UniProt P50549).
T3 construct: expressed in transfected cells; host or cells: HEK293
T3 sequence (P50549 1-477): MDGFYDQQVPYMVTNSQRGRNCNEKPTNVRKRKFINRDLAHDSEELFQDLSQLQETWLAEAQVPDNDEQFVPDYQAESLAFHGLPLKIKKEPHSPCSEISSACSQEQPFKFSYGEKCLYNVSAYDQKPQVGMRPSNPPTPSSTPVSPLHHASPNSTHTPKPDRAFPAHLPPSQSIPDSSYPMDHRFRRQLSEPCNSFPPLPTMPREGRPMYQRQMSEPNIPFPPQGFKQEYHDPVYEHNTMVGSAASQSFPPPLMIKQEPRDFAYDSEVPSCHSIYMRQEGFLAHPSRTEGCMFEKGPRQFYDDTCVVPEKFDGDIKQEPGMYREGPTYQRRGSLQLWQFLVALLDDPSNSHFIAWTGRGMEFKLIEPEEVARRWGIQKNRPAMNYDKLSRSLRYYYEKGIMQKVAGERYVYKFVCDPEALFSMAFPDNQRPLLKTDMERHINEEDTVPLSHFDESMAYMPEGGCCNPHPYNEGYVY
In words: ETV1-dependent reporter assay in HEK293 cells. Conditions: 48 hours. As to the method: (§1) HEK293 cells were transiently transfected with empty vector (for the NT) or ERG-expressing plasmid as well as pRL-TK (internal control) and PUx3-Luc reporter. Cells were then exposed to DMSO vehicle or compounds at designated doses for 48 hours. Experiments were done in triplicate.
Experiments were done as described above in FIG. 1.1a) except that ERG plasmid was replaced by ETV1 plasmid.

The target of another data set is T4, human GATA2 (Homo sapiens, UniProt P23769).
T4 construct: expressed in transfected cells; host or cells: IHH
T4 sequence (P23769 1-480): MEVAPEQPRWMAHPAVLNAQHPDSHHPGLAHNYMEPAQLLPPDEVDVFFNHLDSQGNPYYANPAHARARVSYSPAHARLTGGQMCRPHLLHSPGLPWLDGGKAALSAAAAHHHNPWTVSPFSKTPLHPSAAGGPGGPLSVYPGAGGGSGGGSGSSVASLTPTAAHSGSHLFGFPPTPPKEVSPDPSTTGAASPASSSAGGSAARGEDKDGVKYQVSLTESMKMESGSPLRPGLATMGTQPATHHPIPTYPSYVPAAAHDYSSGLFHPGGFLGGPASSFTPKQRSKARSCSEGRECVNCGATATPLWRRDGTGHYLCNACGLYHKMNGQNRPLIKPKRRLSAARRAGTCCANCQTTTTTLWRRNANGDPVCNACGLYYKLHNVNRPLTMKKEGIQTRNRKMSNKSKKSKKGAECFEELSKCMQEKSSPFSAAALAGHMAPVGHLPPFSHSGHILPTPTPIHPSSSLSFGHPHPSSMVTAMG
Briefly: GATA2-dependent reporter assay in IHH cells. Conditions: GATA-Luc reporter, 48 h. As to the method: K7174 is a known GATA2 inhibitor. The IHH cells were transiently transfected with empty vector (for the NT) or human GATA2-expressing plasmid as well as pRL-TK (internal control) and GATA-Luc reporter plasmids. Cells were exposed to DMSO vehicle or compounds for 48 h. Experiments were in triplicate.

Another data set has as its target T5, human GATA3 (Homo sapiens, UniProt P23771).
T5 construct: expressed in transfected cells; host or cells: IHH
In words: GATA3-dependent reporter assay in IHH cells. Conditions: 48 hours, 10 μM. As to the method: The IHH cells were transiently transfected with empty vector (for the NT) or human GATA3-expressing plasmid as well as pRL-TK (internal control) and GATA-Luc reporter plasmids. Cells were exposed to DMSO vehicle or compounds for 48 hours. Experiments were done in triplicate.

The next data set deals with T6, ERG (Homo sapiens, UniProt P11308).
T6 sequence (P11308 1-486 isoform P11308-3): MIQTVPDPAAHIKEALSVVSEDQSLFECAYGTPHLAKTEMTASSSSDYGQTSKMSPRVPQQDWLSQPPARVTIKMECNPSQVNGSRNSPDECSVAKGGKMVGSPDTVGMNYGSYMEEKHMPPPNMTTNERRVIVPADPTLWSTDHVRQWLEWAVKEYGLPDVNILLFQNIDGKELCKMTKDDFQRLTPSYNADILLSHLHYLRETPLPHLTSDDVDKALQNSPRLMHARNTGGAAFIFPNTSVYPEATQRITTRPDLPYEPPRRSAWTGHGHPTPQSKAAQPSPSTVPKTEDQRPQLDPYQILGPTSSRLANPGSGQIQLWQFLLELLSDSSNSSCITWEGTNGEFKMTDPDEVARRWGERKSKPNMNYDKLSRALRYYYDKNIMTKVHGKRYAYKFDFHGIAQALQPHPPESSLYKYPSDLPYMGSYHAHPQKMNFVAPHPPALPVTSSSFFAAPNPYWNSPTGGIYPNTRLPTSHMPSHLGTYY
In words: ERG-dependent reporter assay in HEK293 cells. Conditions: PUx3-Luc reporter, 48 hours, designated doses. Also noted: expressed in transfected cells; host or cells: HEK293. As to the method: as §1

The test system of data set [1] is interferon signaling pathway in THP-1 cells. In words: Western blot, interferon signaling in THP-1 cells. The following applies: 16 hours. As to the method:
THP1 cells were treated for 16 hours with the indicated concentration (μM) of compounds or DMSO vehicle control. Whole-cell extracts were prepared and subjected to Western blot analysis with the antibodies as indicated.

In the next data set the test system is hSTING and/or mSTING. In words: hSTING- or mSTING-dependent ISRE-luc reporter assay in 293T cells. Conditions: 24 hours. As to the method:
ISRE-luc (reporter), pRL-TK (internal control) and hSTING- or mSTING-expressing plasmids were transiently transfected into 293T cells. Cells were exposed to DMSO vehicle control or compounds for 24 hours. Experiments were done in triplicate.

The test system of data set [2] is phosphorylation of ERK in Panc 10.05 cells. In words: Western blot, phosphorylation of ERK in Panc 10.05 cells. Conditions: 10 μM, 24 hours. As to the method: C-PARP, cleaved PARP. Panc10.05 cells were exposed to DMSO vehicle or compounds at designated doses for 24 hours.
Panc10.05 cells were exposed to DMSO vehicle or compounds at designated doses for 24 hours.
(In general: In western blotting, separated proteins are transferred to a membrane and probed.)

For data set [3], the system named is phosphorylation of ERK in HCT-116 cells. In words: Western blot, phosphorylation of ERK in HCT-116 cells. Conditions: 10 μM, 24 hours. As to the method:
HCT-116 cells were exposed to DMSO vehicle or compounds at designated doses for 24 hours.

Each structure is given as a SMILES string.

T1 sequence (Q86WV6 whole entry H232R): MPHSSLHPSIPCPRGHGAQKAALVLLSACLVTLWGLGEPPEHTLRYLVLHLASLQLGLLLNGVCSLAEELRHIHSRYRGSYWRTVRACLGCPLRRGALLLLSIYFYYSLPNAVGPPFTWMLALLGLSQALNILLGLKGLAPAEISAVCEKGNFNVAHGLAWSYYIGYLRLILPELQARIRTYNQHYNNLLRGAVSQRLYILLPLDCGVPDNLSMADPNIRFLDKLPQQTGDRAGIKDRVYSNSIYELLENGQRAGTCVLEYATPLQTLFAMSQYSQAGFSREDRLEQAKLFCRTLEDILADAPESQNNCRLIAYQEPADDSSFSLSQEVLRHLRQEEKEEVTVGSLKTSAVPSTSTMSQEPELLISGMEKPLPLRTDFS
T5 sequence (P23771 whole entry): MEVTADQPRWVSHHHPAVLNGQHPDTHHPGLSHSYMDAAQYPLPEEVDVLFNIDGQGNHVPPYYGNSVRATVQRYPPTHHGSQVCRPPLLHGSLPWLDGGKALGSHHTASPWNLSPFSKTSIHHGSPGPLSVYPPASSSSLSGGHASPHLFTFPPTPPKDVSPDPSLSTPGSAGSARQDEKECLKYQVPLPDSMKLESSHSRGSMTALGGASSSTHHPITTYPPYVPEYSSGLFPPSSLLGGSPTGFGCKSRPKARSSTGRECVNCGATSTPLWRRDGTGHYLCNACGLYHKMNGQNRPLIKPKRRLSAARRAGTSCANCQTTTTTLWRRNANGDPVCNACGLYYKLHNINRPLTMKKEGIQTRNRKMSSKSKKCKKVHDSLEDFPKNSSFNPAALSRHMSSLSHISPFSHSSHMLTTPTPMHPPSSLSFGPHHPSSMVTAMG

With `COc1cccc(-c2nc(CCCc3c[nH]c4ccccc34)oc2-c2cccc(OC)c2)c1` [Compound 640], the “activation of hSTING in ISRE-luc reporter assay” value at human STING (hSTING) was “activate human STING (hSTING)”. Moreover, the “activation of mSTING in ISRE-luc reporter assay” value (from here on “activation of mSTING”) at mouse STING (mSTING) is “activate mouse STING (mSTING)”.

Regarding `FC(F)(F)c1ccc(-c2nc(CCCc3c[nH]c4ccccc34)oc2-c2ccc(C(F)(F)F)cc2)cc1` [Compound 672], at human STING (hSTING), the “activation of hSTING in ISRE-luc reporter assay” value was “activate human STING (hSTING)”. Further, the “activation of mSTING” value on mouse STING (mSTING) is on record as “activate mouse STING (mSTING)”.

As for `Oc1cccc(-c2nc(CCc3c[nH]c4ccccc34)oc2-c2cccc(O)c2)c1` [Compound 675], the “ETV1 inhibition in ETV1-dependent reporter assay” value at ETV1 is listed as “ETV1 inhibitors”. The “GATA2 inhibition in GATA2-dependent reporter assay” value (shortened to “GATA2 inhibition”) on human GATA2 is given as “GATA2 inhibitors”. Also, the “activity against GATA3 in GATA3-dependent reporter assay” value at human GATA3 was “inactive against GATA3”. Also, at ERG, the “ERG inhibition in ERG-dependent reporter assay” value is “ERG inhibitors”.

On to `FC(F)(F)c1cccc(-c2nc(CCCc3c[nH]c4ccccc34)oc2-c2cccc(C(F)(F)F)c2)c1` [Compound 681], for which the “activation of hSTING in ISRE-luc reporter assay” value on human STING (hSTING) was “activate human STING (hSTING)”. Besides, on mouse STING (mSTING), the “activation of mSTING” value is “activate mouse STING (mSTING)”.

`Fc1cccc(-c2nc(CCc3c[nH]c4ccccc34)oc2-c2cccc(F)c2)c1` [Compound 761]: on human STING (hSTING), the “activation of hSTING in ISRE-luc reporter assay” value is reported as “activate human STING (hSTING)”. The “activation of mSTING” value at mouse STING (mSTING) is reported as “activate mouse STING (mSTING)”. Further, the “activation of interferon signaling pathway (Western blot)” value (from here on “activation … (Western blot)”) in data set [1] is given as “activate interferon signaling pathway”.

Turning to `Fc1cccc(-c2oc(CCCc3c[nH]c4ccccc34)nc2-c2ccco2)c1` [Compound 834], on human GATA2, the “GATA2 inhibition” value is reported as “GATA2 inhibitors”. Also, the “activation of hSTING in ISRE-luc reporter assay” value at human STING (hSTING) is “activate hSTING”. The “activation … (Western blot)” value in [1] was “activate interferon signaling pathway”.

Regarding `COc1cccc(-c2oc(CCCc3c[nH]c4ccccc34)nc2-c2ccco2)c1` [Compound 840], on human GATA2, the “GATA2 inhibition” value is “GATA2 inhibitors”. Moreover, on human STING (hSTING), the “activation of hSTING in ISRE-luc reporter assay” value is recorded as “activate hSTING”. The “activation … (Western blot)” value in data set [1] is “activate interferon signaling pathway”.

As for `Fc1cccc(-c2nc(CNCCc3c[nH]c4ccccc34)[nH]c2-c2cccc(F)c2)c1` [Compound 874], the results for the “activation of hSTING and/or mSTING in ISRE-luc reporter assay” value (from here on “activation of hSTING and/or mSTING”) in the data set with hSTING and/or mSTING and in the data set with hSTING and/or mSTING (10 μM) were “activate hSTING and/or mSTING” and “activate hSTING and/or mSting”, respectively. Further, the “activation … (Western blot)” value in [1] is “activate interferon signaling pathway”.

For `Fc1cccc(-c2nc(CN3CCC(c4noc5ccccc45)CC3)[nH]c2-c2cccc(F)c2)c1` [Compound 1100], the “activation of hSTING and/or mSTING” value in the data set with hSTING and/or mSTING was “activate hSTING and/or mSTING”. Moreover, the “suppression of phosphorylation of ERK (Western blot)” value (“suppression” for short) in data set [2] was “potently suppressed phosphorylation of ERK”.

Take `c1ccc(CN2CCN(Cc3nc(-c4ccccc4)c(-c4ccccc4)o3)CC2)cc1` [Compound 1176]: the “activation of hSTING and/or mSTING” value in the data set with hSTING and/or mSTING and with hSTING and/or mSTING (10 μM) was “activate hSTING and/or mSTING” in each case. Moreover, the “activation … (Western blot)” value in [1] is on record as “activate interferon signaling pathway”.

Consider `N#CCN(CCc1c[nH]c2ccccc12)Cc1nc(-c2ccccc2)c(-c2ccccc2)[nH]1` [Compound 1187], for which the “suppression” value in data set [2] and in [3] was “potently suppressed phosphorylation of ERK” throughout.

`COc1ccc(CC/C(=C/C(=O)N2CCC(O)(c3cccc(C(F)(F)F)c3)CC2)c2ccccc2)cc1F` [Compound 1200]: in data set [2], the “suppression” value is “potently suppressed phosphorylation of ERK”.

With `OC1(c2cccc(C(F)(F)F)c2)CCN(Cc2nc(-c3cccc(F)c3)c(-c3cccc(F)c3)[nH]2)CC1` [Compound 1209], in data set [3], the “suppression” value is reported as “potently suppressed phosphorylation of ERK”.

Consider `COc1cccc(N2CCN(C(=O)C/C(=C/Cc3ccc(OC)c(F)c3)c3ccccc3)CC2)c1` [Compound 1237], for which the “suppression” value in data set [2] and in data set [3] was “potently suppressed phosphorylation of ERK” throughout.

As to `COc1ccc(CC/C(=C/C(=O)N2CCC(O)(c3ccccc3)CC2)c2ccc(Cl)cc2)cc1F` [Compound 1306], the “suppression” value in data set [3] is “potently suppressed phosphorylation of ERK”.
